Test results published in patent US7626044B2, “Triptolide derivatives and their uses” (priority 2002, dated 2009).
Where “and” joins values, the source holds several entries; their conditions need not be identical. Equal values may be shown once.

Assays:
MTT cytotoxic assay = type: cell-based, mouse; details: mouse; restated; read-out: IC50 (lymphocyte cytotoxicity, restated)
Method: (§1) Mice were sacrificed by cervical dislocation, and spleens were collected under sterile conditions then teased through a nylon mesh. Erythrocytes were lysed. Cells were washed and resuspended at 5×10^6/ml in RPMI-1640 media supplemented with 10% FBS.
(§2) For one 96 well plate assay, 90 μl of cells, 45 μl of sample and 45 μl of RPMI-1640 media with 10% FBS were added into each well with the final volume 180 μl. The negative control wells (containing 90 μl of RPMI-1640 media with 10% FBS and 90 pt of cells), blank control (180 μl of RPMI-1640 media with 10% FBS) were also performed. Incubate plate for 48 hours at 37° C., 5% CO2 in a humidified incubator. 18 μl of MTT solution (5 mg/ml) was added for 6-7 h.
(§3) 90 μl of MTT lysis solution was added to each well followed by a further incubation at 37° C. for 6-7 h. And the absorbance was measured at 570 nm using a plate reader.

lymphocyte = experiment: MTT cytotoxic assay; type: cell-based, mouse; details: Lymphocyte, read-out: IC50 (concentration required to reduce the viability of cells by 50%); mouse spleen cells, 48 hours, MTT
Method: as §1, §2, §3

T lymphocyte = experiment: ConA induced T-lymphocyte proliferation ([3H]thymidine); type: cell-based, mouse; details: 48 h
Method: (§4) Mice were sacrificed by cervical dislocation, and spleens were collected under sterile conditions then teased through a nylon mesh. Erythrocytes were lysed. Cells were washed and resuspended at 5×10^6/ml in RPMI-1640 media containing 10% FBS. For one 96 well plate assay, 100 pt of cells, 50 μl of sample and 50 μl of ConA/LPS were added into each well with the final volume 200 μl. The control wells were set up with 50 μl of RPMI-1640 media instead of ConA/LPS.
(§5) Plates were incubated for 48 h (ConA) or 60 h (LPS), respectively, at 37° C., 5% CO2 in a humidified incubator. In the last 8 h of incubation, 25 μl (1.9×10^10 Bq) of [^3H]thymidine was added. After plates were incubated for 48 h, the plates (ConA) were stored at −20° C., then after another 12 h, the plates (LPS) were stored at −20° C.
(§6) At the end of incubation, pulsed cells were harvested on a glass filter using a cell harvester ([…]96®, TOMTEC) and allowed to dry. Incorporation of radioactive thymidine was determined by using liquid Scintillation and Luminescence Counters (MicroBeta Trilux®, PerkinElmer).

B lymphocyte = experiment: LPS induced B-lymphocyte proliferation ([3H]thymidine); type: cell-based, mouse; details: 60 h
Method: as §4, §5, §6

[1] = system: DNFB-induced mouse DTH response; experiment: DNFB-induced mouse delayed type hypersensitivity response (DTH); type: in vivo; details: Balb/c mice
Method: Female Balb/c mice (age of 6-8 wk) were randomly divided into groups and immunized with 20 μl 0.5% DNFB solution in absolute acetone-olive oil (4:1) on each hind foot on day 0 and 1;
7-9 days after the initial immunization, mice were boosted with 10 μl 0.4% DNFB on both sides of the left ear, whereas the right ear was treated with vehicle alone;
Compounds were administered intraperitoneally (i.p.) or orally (p.o.) to the mice 1 h before DNFB booster immunization and 12 h later.
Ear swelling and other indexes were assessed 24-48 h after booster immunization.
Note: Female ICR mice (age of 6-8 wk) were immunized with 0.7% DNFB solution and boosted with 0.6% DNFB solution.

[2] = Acute toxicity (LD50) test in mice, intraperitoneal injection; type: in vivo, mouse; details: mouse, in vivo, ip; mice, single intraperitoneal injection, 14 days, Bliss' method
Method: Mice were single administered with LLDT-8 by intraperitoneal injection, and observed for clinical signs of toxicity immediately and the following 14 days. Necropsy was performed on all animals that died and on all survivors at the end of the 2-week study. Death was seen from the next day after treatment and reached a peak at the 2-4 day. All gross pathological changes should be recorded for each animal. There was no gender difference in survival.
LLDT-8 is much less toxic than its parent compound, […].

CC(C)[C@]12O[C@H]1[C@@H]1O[C@]13[C@]1(O[C@H]1C[C@H]1C4=C(CC[C@@]13C)C(=O)OC4)[C@@H]2O [LLDT-2, triptolide]
IC50 (MTT cytotoxic assay): 2 nM
IC50 (lymphocyte): 0.00074 µg/mL and 2 nM
ED50 for inhibiting T lymphocyte proliferation induced by ConA (T lymphocyte): 2.44 ng/mL
EC50 (T lymphocyte; Mus musculus, T-lymphocyte, read-out: ED50 for inhibiting T lymphocyte proliferation induced by ConA): 6.8 nM
ED50 for inhibiting B lymphocyte proliferation induced by LPS (B lymphocyte): 2.38 ng/mL
EC50 (B lymphocyte; Mus musculus, Lymphocyte, read-out: ED50 for inhibiting B lymphocyte proliferation induced by LPS): 6.6 nM
Body weight after i.p. ([1]; Table 8, i.p., dosage 40 (mg/kg), control 21.9): 21.2 g
Body weight before i.p. ([1]; Table 8, i.p., dosage 40 (mg/kg), control 22.4): 21.5 g
Ear swelling X ± SD ([1]; Table 8, i.p., dosage 40 (mg/kg), control 22.7 ± 2.1): 17.7 ± 5.7 mg
Right ear ([1]; Table 8, i.p., dosage 40 (mg/kg), control 26.4): 30.2 mg
Left ear ([1]; Table 8, i.p., dosage 40 (mg/kg), control 49.1): 47.9 mg
Spleen ([1]; Table 8, i.p., dosage 40 (mg/kg), control 154.0): 151.4 mg
Body weight after (i.p.) ([1]; Table 9, p.o., dosage 0.2 mg/kg, control 19): 20 g
Body weight before (i.p.) ([1]; Table 9, p.o., dosage 0.2 mg/kg, control 20): 21 g
Ear swelling ([1]; Table 9, p.o., dosage 0.2 mg/kg, control 23.4): 16.7 mg
Right ear ([1]; Table 9, p.o., dosage 0.2 mg/kg, control 25.9): 24.5 mg
Left ear ([1]; Table 9, p.o., dosage 0.2 mg/kg, control 49.3): 41.2 mg
Spleen ([1]; Table 9, p.o., dosage 0.2 mg/kg, control 125.8): 127.0 mg
LD50 at 14 days [2]: 0.5 mg/kg
